Experimental findings from ChEMBL document CHEMBL2440103, “Synthesis, docking, and biological studies of phenanthrene β-diketo acids as novel HIV-1 integrase inhibitors” (Bioorg Med Chem Lett, 2013) are described below.

One may read the IC50 as the concentration that inhibits the measured activity by half. Broadly, the EC50 is the concentration needed to bring the measured effect to its halfway point.

For assay [1], the target named is T1, Human immunodeficiency virus type 1 integrase (Human immunodeficiency virus 1, UniProt Q7ZJM1). In words: Inhibition of Human immunodeficiency virus 1 integrase-mediated 3'-processing after 30 mins by polyacrylamide gel electrophoresis.
T1 sequence (Q7ZJM1 whole entry): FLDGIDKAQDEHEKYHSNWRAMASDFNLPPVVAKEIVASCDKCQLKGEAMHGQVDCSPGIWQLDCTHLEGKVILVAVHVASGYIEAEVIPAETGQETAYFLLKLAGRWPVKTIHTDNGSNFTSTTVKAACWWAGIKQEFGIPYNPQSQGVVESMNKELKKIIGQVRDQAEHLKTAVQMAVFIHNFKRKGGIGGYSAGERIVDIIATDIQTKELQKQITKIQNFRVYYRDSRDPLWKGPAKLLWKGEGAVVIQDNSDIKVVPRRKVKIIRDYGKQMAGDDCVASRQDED
Assay [2] has as its target T1, Human immunodeficiency virus type 1 integrase. Nature of the assay: Inhibition of Human immunodeficiency virus 1 integrase strand transfer activity after 30 mins by polyacrylamide gel electrophoresis.
In assay [3] the target is Human immunodeficiency virus type 1 integrase (Human immunodeficiency virus 1) (UniProt Q7ZJM1). In words: Selectivity ratio of IC50 for Human immunodeficiency virus 1 integrase-mediated 3'-processing to IC50 for Human immunodeficiency virus 1 integrase strand transfer activity.
Chain of Human immunodeficiency virus type 1 integrase (Human immunodeficiency virus 1) (Q7ZJM1 as listed by the source): as the sequence (Q7ZJM1 whole entry) above
Another assay relates to Vero. Nature of the assay: Cytotoxicity against african green monkey Vero cells. It counts as cell-based. The following applies: Chlorocebus sabaeus.
Another assay concerns PBMC. In words: Cytotoxicity against human PBMC. The class given is cell-based.
The next assay has as its system CCRF-CEM. In words: Cytotoxicity against human CEM cells. The class given is cell-based.
Assay [4] deals with Human immunodeficiency virus 1. In words: Antiviral activity against Human immunodeficiency virus 1 infected in human PBMC assessed as inhibition of viral replication after 5 days by RT-PCR method. The note with it: Human immunodeficiency virus 1, 120 h. It counts as functional, organism-based.

Bounds are passed on as bounds.

Turning to `O=C(O)C(=O)CC(=O)c1ccc2c(ccc3c(Cl)cccc32)c1`, the values for the IC50 in assay [1] and in assay [2] were 19 µM and 4 µM, respectively.
Consider `O=C(O)C(=O)CC(=O)c1ccc2c(ccc3c(F)cccc32)c1`, for which the half-inhibitory concentration (IC50) in assay [1] is 35 µM; in assay [2] it was 4 µM.
For the compound `COc1ccc2c(c1)cc(C(=O)CC(=O)C(=O)O)c1c(F)cccc12`, the IC50 is 44 µM in assay [1] and 6 µM in assay [2].
On to `O=C(O)C(=O)CC(=O)c1ccc2ccc3cc(F)ccc3c2c1F`, for which the figures for the half-inhibitory concentration (IC50) in assay [1] and in assay [2] were 63 µM and 8 µM, respectively.
For `COc1ccc2c(c1)cc(C(=O)CC(=O)C(=O)O)c1ccccc12`, in that order: 32 µM and 3 µM.
For the compound `O=C(O)C(=O)CC(=O)c1ccc2c(ccc3cc(Cl)ccc32)c1`, in assay [3], the Ratio IC50 worked out at 9. For the same compound, the IC50 with Vero came out at 7.2 µM; in the assay on PBMC it was 14.1 µM; in the assay with CCRF-CEM it was 12.1 µM; in assay [1], 12 µM; in assay [2], 1.4 µM. Besides, the EC50 in assay [4] worked out at 20.9 µM.
In the assay on PBMC, `Cc1cn([C@H]2C[C@H](N=[N+]=[N-])[C@@H](CO)O2)c(=O)[nH]c1=O` [ZIDOVUDINE] had a half-inhibitory concentration (IC50) of more than 100 µM.
Turning to `O=C(O)C(=O)CC(=O)c1ccc2c(ccc3ccc(Cl)cc32)c1`, the half-inhibitory concentration (IC50) in the assay with Vero amounted to 4.5 µM; in the assay with PBMC, 4 µM; with CCRF-CEM, 13.1 µM; in assay [1], 5 µM; in assay [2], 1.3 µM. For the same compound, the EC50 in assay [4] was found to be 27.5 µM.
On to `O=C(O)C(=O)CC(=O)c1ccc2ccc3c(Cl)cccc3c2c1`, for which the half-maximal inhibitory concentration (IC50) in assay [1] came out at 11 µM; in assay [2], 1.2 µM.
In the same order, the values of `O=C(O)C(=O)CC(=O)c1ccc2ccc3c(F)cccc3c2c1` are 11 µM and 3 µM.
With `O=C(O)C(=O)CC(=O)c1ccc2ccc3ccccc3c2c1F`, the concentration for half-maximal inhibition (IC50) in assay [1] was determined as 83 µM; in assay [2], 63 µM.
